The conditions of data set [1]: Crystal; DSC.
Data set [2] is described as follows: Molar enthalpy of transition or fusion. Particulars: Crystal; DSC.

The values below come from the NIST ThermoML archive (doi:10.1021/acs.jced.8b00977).

Numbers after ± are expanded uncertainties.

In the case of `CC(=O)CC(c1ccccc1)c1c([O-])c2ccccc2oc1=O.[Na+]` (configuration not stated) [warfarin sodium], the Triple point temperature in data set [1] is reported as 468.87 ± 1 K. For the same compound, in data set [2], the “Molar enthalpy of transition or fusion” value was found to be 17 ± 0.884 kcal/mol.
